Values quoted from earlier work, collected in patent US20230241194A1, “PRE-ERYTHROCYTIC MALARIA VACCINES” (PATH, priority 2020, published 2023).

Target: T1, TLR7 (Homo sapiens, UniProt Q9NYK1)
T1 sequence (Q9NYK1 27-1049): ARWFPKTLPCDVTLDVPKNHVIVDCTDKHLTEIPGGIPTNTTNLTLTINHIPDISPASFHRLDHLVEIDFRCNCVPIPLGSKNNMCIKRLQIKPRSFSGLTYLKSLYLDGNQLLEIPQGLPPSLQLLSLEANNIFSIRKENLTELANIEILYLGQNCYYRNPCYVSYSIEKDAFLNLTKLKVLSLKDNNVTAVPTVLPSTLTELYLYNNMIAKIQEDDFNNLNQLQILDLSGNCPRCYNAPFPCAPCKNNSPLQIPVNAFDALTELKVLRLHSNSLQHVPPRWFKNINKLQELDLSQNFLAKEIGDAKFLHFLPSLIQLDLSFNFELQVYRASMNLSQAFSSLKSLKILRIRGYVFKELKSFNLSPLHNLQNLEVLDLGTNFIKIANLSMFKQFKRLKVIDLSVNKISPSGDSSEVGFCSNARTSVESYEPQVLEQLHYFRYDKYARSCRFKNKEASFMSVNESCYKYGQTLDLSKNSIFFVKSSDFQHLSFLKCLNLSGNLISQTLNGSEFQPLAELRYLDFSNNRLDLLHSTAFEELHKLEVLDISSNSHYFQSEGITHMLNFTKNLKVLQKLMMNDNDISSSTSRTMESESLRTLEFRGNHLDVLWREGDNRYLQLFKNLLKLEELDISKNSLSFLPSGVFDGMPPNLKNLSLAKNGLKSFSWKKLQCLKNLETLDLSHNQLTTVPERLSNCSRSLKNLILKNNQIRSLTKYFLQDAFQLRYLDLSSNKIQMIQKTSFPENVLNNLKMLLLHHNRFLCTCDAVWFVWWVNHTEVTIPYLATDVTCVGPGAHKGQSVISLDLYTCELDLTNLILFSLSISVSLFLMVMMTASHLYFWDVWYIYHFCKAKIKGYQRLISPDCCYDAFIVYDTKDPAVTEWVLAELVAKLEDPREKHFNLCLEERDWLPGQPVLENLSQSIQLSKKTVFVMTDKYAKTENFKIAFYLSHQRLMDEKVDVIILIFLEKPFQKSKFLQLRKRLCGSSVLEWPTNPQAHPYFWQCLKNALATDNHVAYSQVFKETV
Settings: reported in PTL 1

In the case of CCC[C@@H](CCO)Nc1nc(N)nc(C)c1Cc1ccc(CN(C)CCNC(=O)CC/C(C)=C/CC/C(C)=C/CC/C(C)=C/CC/C=C(\C)CC/C=C(\C)CCC=C(C)C)cc1 [Compound A, (4E,8E,12E,16E,20E)-N-{2-[{4-[(2-amino-4-{[(3S)-1-hydroxyhexan-3-yl]amino}-6-methylpyrimidin-5-yl)methyl]benzyl}(methyl)amino]ethyl}-4,8,12,17,21,25-hexamethylhexacosa-4,8,12,16,20,24-hexaenamide], the TLR7 agonistic activity is given as “having TLR7 agonistic activity”.
